Format in all cases: biochemical
The target in assay [1] is T1, human CSNK1A1 (Homo sapiens (Human), UniProt P48729). Briefly: CSNK1A1 Assay 2 (ADP-Glo, 1 μM ATP). The settings on record: substrate biotin-Ahx-KRRRAL-pS-VASLPGL, read-out: CSNK1A1 Assay 2 IC50 [mol/l] (median). The method, boiled down: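 Full-length human CSNK1A1 as an N-terminal GST fusion (baculovirus/insect cells) with biotinylated peptide substrate biotin-Ahx-KRRRAL-pS-VASLPGL and 1 μM ATP, in HEPES pH 7.5 buffer. Compounds were pre-incubated with enzyme (~0.0375 ng/μL) for 15 min at 22 °C. Generated ADP was read by ADP-Glo luminescence as the activity measure.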
T1 sequence (P48729 whole entry, the tested form may be a part): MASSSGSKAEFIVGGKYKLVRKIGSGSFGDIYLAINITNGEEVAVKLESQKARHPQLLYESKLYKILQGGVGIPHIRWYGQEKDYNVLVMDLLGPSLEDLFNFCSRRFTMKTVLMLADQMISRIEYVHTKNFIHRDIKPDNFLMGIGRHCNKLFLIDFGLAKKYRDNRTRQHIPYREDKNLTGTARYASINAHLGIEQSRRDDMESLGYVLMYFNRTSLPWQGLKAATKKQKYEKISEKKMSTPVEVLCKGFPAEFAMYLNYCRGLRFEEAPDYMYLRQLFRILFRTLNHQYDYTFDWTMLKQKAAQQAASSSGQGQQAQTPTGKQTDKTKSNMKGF

Assay [2] has as its target T1, human CSNK1A1. Description: CSNK1A1 High ATP Assay (ADP-Glo, 1 mM ATP). As to conditions: read-out: CSNK1A1 high ATP assay IC50 [mol/l] (median). In outline:
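Kinase activity taken as ADP generated, quantified by ADP-Glo luminescence after 1 h ATP depletion and 1 h detection at 22 °C. Enzyme is GST–full-length human CSNK1A1 (insect cell-expressed), pre-bound to compound for 15 min, with phosphopeptide substrate and 1 mM ATP.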

The target in a further assay is human CSNK1D (Homo sapiens (Human), UniProt P48730). Description: CSNK1D Assay (ADP-Glo, 1 μM ATP). As to conditions: read-out: CSNK1D IC50 [mol/l] (median). The method, boiled down:
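Activity is read as ADP produced, by ADP-Glo luminescence after 1 h steps at 22 °C. The reaction uses 1 μM ATP, a biotinylated peptide and insect-cell-expressed GST–CSNK1D (about 0.5 ng/μL) in pH 7.5 HEPES buffer, with 15 min compound–enzyme preincubation.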

The target in assay [3] is wild-type Epidermal Growth Factor Receptor (EGFR) (Homo sapiens (Human), UniProt P00533). Description: WT-EGFR Kinase Assay (TR-FRET, 2 mM ATP). (In general: In TR-FRET formats the signal depends on donor and acceptor labels being close together.)
Sequence of wild-type Epidermal Growth Factor Receptor (EGFR) (P00533 669-1210): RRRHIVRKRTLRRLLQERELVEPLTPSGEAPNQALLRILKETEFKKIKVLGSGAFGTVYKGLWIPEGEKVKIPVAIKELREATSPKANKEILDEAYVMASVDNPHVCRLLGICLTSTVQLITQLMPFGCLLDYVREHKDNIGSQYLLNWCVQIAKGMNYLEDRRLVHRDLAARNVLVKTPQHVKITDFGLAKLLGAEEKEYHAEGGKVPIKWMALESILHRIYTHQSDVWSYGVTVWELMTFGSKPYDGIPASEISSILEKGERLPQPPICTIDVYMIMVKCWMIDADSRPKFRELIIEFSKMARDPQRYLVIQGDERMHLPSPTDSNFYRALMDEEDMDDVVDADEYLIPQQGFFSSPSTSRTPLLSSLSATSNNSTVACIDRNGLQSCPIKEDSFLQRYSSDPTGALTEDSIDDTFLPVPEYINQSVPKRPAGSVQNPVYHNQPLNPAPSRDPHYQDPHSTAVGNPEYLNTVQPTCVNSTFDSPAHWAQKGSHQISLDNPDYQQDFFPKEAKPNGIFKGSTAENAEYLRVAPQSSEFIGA
The mark [4] stands for this setting: EGFR Wildtyp- 2 mM ATP IC50 [mol/l] (median).
Where [5] appears, read: read-out: EGFR Wildtyp- 2 mM ATP IC50 [mol/l] (median).

Where two headings read alike, the source gives them in different places. Some results are limits rather than exact numbers.

Sequence of human CSNK1D (P48730 whole entry): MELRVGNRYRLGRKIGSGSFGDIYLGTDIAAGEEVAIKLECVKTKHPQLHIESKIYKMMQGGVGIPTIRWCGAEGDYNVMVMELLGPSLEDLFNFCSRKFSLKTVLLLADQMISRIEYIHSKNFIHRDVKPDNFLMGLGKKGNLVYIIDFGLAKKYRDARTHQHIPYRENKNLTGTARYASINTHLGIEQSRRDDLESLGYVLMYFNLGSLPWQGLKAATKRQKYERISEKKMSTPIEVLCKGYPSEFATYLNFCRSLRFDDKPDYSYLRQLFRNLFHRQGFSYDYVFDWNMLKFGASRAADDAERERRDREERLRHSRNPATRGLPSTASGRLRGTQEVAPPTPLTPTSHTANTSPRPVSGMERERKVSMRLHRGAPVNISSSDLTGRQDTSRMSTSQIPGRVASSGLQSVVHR

Consider `CC(C(=O)Nc1cc(-c2[nH]c3c(c2Nc2ccccc2)C(=O)N(C)C(C)C3)ccn1)c1ccc(F)cc1` (single isomer, unassigned; (-)) [Example 93, (−)-N-{4-[3-anilino-5,6-dimethyl-4-oxo-4,5,6,7-tetrahydro-1H-pyrrolo[3,2-c]pyridin-2-yl]pyridin-2-yl}-2-(4-fluorophenyl)propanamide], for which the IC50 is 47.2 nM on human CSNK1A1 [1], 3180 nM at human CSNK1A1 [2], 47.3 nM at human CSNK1D and greater than 20000 nM in assay [3] (setting [4]).

As to `CC(C(=O)Nc1cc(-c2[nH]c3c(c2Nc2ccccc2)C(=O)N(C)C(C)C3)ccn1)c1ccc(F)cc1` (single isomer, unassigned; (-)) [Example 94, (−)-(2RS)—N-{4-[(6R*)-3-anilino-5,6-dimethyl-4-oxo-4,5,6,7-tetrahydro-1H-pyrrolo[3,2-c]pyridin-2-yl]pyridin-2-yl}-2-(4-fluorophenyl)propanamide], the IC50 turned out to be 4.33 nM on human CSNK1A1 [1], 154 nM at human CSNK1A1 [2], 7.02 nM on human CSNK1D and 4410 nM in assay [3] (setting [4]).

As for `CC(C(=O)Nc1cc(-c2[nH]c3c(c2Nc2ccccc2)C(=O)N(C)C(C)C3)ccn1)c1ccc(F)cc1` (single isomer, unassigned; (-)) [Example 95, (−)-N-{4-[3-anilino-5,6-dimethyl-4-oxo-4,5,6,7-tetrahydro-1H-pyrrolo[3,2-c]pyridin-2-yl]pyridin-2-yl}-2-(4-fluorophenyl)propanamide], the IC50 on human CSNK1A1 [1] came to 46.2 nM; on human CSNK1A1 [2] it was 2460 nM; on human CSNK1D, 45.3 nM; in assay [3] (setting [4]), 6310 nM.

Turning to `CC1Cc2[nH]c(-c3ccnc(NC(=O)Cc4ccncc4)c3)c(Nc3ccccc3)c2C(=O)N1C` (single isomer, unassigned; (-)) [Example 99, (−)-N-{4-[(6S*)-3-anilino-5,6-dimethyl-4-oxo-4,5,6,7-tetrahydro-1H-pyrrolo[3,2-c]pyridin-2-yl]pyridin-2-yl}-2-(pyridin-4-yl)acetamide], the IC50 at human CSNK1A1 [1] is 3.78 nM; on human CSNK1A1 [2], 25.9 nM; at human CSNK1D, 5.1 nM; in assay [3] (setting [4]), 329 nM.

Regarding `CC1Cc2[nH]c(-c3ccnc(NC(=O)Cc4ccc(F)cc4)c3)c(Nc3ccccc3F)c2C(=O)N1C` (single isomer, unassigned; (-)) [Example 102, (−)-N-{4-[3-(2-fluoroanilino)-5,6-dimethyl-4-oxo-4,5,6,7-tetrahydro-1H-pyrrolo[3,2-c]pyridin-2-yl]pyridin-2-yl}-2-(4-fluorophenyl)acetamide], the IC50 on human CSNK1A1 [1] was determined as 3.6 nM; at human CSNK1A1 [2], 51 nM; at human CSNK1D, 7.21 nM; in assay [3] (setting [4]), 2330 nM.

Take `CC1Cc2[nH]c(-c3ccnc(NC(=O)C(CC(F)F)c4ccc(F)cc4)c3)c(Nc3ccccc3F)c2C(=O)N1C` (single isomer, unassigned; (-)) [Example 104, (−)-4,4-difluoro-N-{4-[3-(2-fluoroanilino)-5,6-dimethyl-4-oxo-4,5,6,7-tetrahydro-1H-pyrrolo[3,2-c]pyridin-2-yl]pyridin-2-yl}-2-(4-fluorophenyl)butanamide]: the IC50 at human CSNK1A1 [1] is 67.9 nM; on human CSNK1A1 [2], 4490 nM; at human CSNK1D it was 60.5 nM; in assay [3] (setting [5]), greater than 20000 nM.

With `CC1Cc2[nH]c(-c3ccnc(NC(=O)C(CC(F)F)c4ccc(F)cc4)c3)c(Nc3ccccc3F)c2C(=O)N1C` (single isomer, unassigned; (-)) [Example 106, (−)-(2RS)-4,4-difluoro-N-{4-[(6R*)-3-(2-fluoroanilino)-5,6-dimethyl-4-oxo-4,5,6,7-tetrahydro-1H-pyrrolo[3,2-c]pyridin-2-yl]pyridin-2-yl}-2-(4-fluorophenyl)butanamide], the IC50 is 17.8 nM on human CSNK1A1 [1], 56.2 nM at human CSNK1A1 [2], 22.3 nM at human CSNK1D and greater than 20000 nM in assay [3] (setting [5]).
